Data taken from US20050101673A1, “Use of orally available prostacyclin derivatives for the production of a pharmaceutical agent for treating diseases that are associated with bone marrow edemas” (Schering AG, priority 2002, published 2005).

Experiments:
[1] = system: patients with osteonecrosis or osteoarthritis of the knee; assay: Random, double-blind comparison study of oral iloprost versus Tramadol; assay type: in vivo, human
Experimental: To confirm the action of oral iloprost on the bone marrow edema and the pain, a random, double-blind comparison study was performed on the opiate Tramadol® in 41 patients with osteonecrosis or osteoarthritis of the knee in the period from March 2001 to November 2002 according to the GCP guidelines.
Patients of both sexes with resting pain because of an osteonecrosis or osteoarthritis were included in the study if the following criteria were met: • Age between 19 and 60 years, • Bone marrow edema found by means of MRT according to specified criteria.
The treatment was carried out either with iloprost capsules or with outwardly indistinguishable Tramadol capsules that were packaged and characterized according to valid GLP rules. Each capsule contained either 50 μg of iloprost or 50 mg of Tramadol®.
During the first three days of treatment, the study medication was administered in a dosage of 3×1 capsules during the day, which starting on day 4 could be increased individually to increase the success of the therapy (alleviation of pain) up to a maximum dose of 3×2 capsules during the day. In the case of poor tolerance, the dosage could always be reduced to a minimum dose of 2×1 capsules during the day.
The treatment period was one month, followed by a follow-up observation period of two months during which no treatment was given. Previously administered pain-relieving medications should be discontinued before the beginning of the study.
The clinical action of the treatment was determined based on the following parameters: • Evaluation of the intensity of the resting pain and the activity-related pain by the patient based on a 100 mm scale, whereby 0 means “no pain,” and 100 means “intolerable pain.” • Evaluation of the functional condition of the knee by means of Larson scores. • Evaluation of the bone marrow edema by means of MRT.

[2] = system: patients with painful bone marrow edema; assay: 28-day treatment of patients with painful bone marrow edema (summary statements); assay type: in vivo, human; details: 28-day oral treatment; for pain and articulation: follow-up two months after end of treatment
Text: Treatment with orally available prostacyclin derivatives, especially with cyclodextrin clathrates of the prostacyclin derivatives of formula I, thus represents a novel therapy that not only suppresses the symptoms, i.e., the pain, but combats the causes of osteonecrosis and osteoarthritis and for the first time can also be clinical, studied independently.
The β-cyclodextrin clathrate of iloprost, (5- {(1S,5S,6R,7R)-7-hydroxy-6-[(E)-(3R,4RS)-3-hydroxy-4-methyl-oct-1-en-6-inyl]-bicyclo[3.3.0]octane-3-ylidene}pentanoic acid)-β-cyclodextrin clathrate, is especially suitable.

[3] = system: osteonecrosis; details: five-day intravenous infusion; cited from earlier work
[4] = after 28 days of treatment, persists 2 months without therapy
[5] = listed as iloprost β-cyclodextrin clathrate
[6] = listed as β-cyclodextrin clathrate of iloprost

COc1cccc(C2(O)CCCCC2CN(C)C)c1 (centres unmarked) [Tramadol®, reference compound]
activity-related pain, 100 mm visual analog scale [1, 4]: considerable reduction in pain | resting pain, 100 mm visual analog scale [1, 4]: Almost complete freedom from pain | knee activity score according to Larson (maximum score 100) ([1]; improvement persists 2 months without therapy): pronounced increase | patients with complete degeneration of the bone marrow edema in at least one affected bone ([1]; one month treatment, MRT): 19%

CC#CCC(C)[C@H](O)/C=C/[C@@H]1[C@H]2C/C(=C/CCCC(=O)O)C[C@H]2C[C@H]1O (stereo partly drawn) [oral iloprost, (5-{(1S,5S,6R,7R)-7-hydroxy-6-[(E)-(3R,4RS)-3-hydroxy-4-methyl-oct-1-en-6-inyl]-bicyclo[3.3.0]octane-3-ylidene}pentanoic acid)-β-cyclodextrin clathrate]
pain and articulation [2, 5]: alleviation of pain and the improved articulation could be observed even two months after the end of treatment | pain and articulation [2, 6]: significant improvement of the pain | bone marrow edema [2, 5]: reduced not only the bone marrow edema | structural integrity of the bone, necrotic areas and lesions [2, 5]: restored the structural integrity | bone marrow edema [2, 6]: significant reduction of the bone marrow edema | structural integrity of the bone, necrotic areas and lesions [2, 6]: healing of necroses

CC#CCC(C)[C@H](O)/C=C/[C@@H]1[C@H]2C/C(=C/CCCC(=O)O)C[C@H]2C[C@H]1O.NC(CO)(CO)CO (some centres unmarked) [Ilomedin®, iloprost-trometamol]
pain in osteonecrosis [3]: alleviation of pain in osteonecrosis can be achieved
